Consider 31 compounds from patent publication US20120088665A1, “FUNGICIDAL MIXTURES” (BASF SE, priority 2009, published 2012).

Read-outs that look alike come from different tables or passages of the source.

The test system of series [1] is Septoria tritici. Put plainly: Activity against the Septoria leaf spot pathogen Septoria tritici in the microtiter test (Septtr). The format is cell-based. Conditions: single active compound; for inhibition of growth at 0.004 ppm: conc 0.004 ppm; for inhibition of growth at 0.016 ppm: conc 0.016 ppm; for inhibition of growth at 0.063 ppm: conc 0.063 ppm.
The test system of series [2] is Fusarium culmorum. The series can be described thus: Activity against Fusarium culmorum in the microtiter test (Fusacu). Conditions: single active compound; for inhibition of growth at […] / inhibition of growth at 4 ppm / inhibition of growth at 16 ppm / inhibition of growth at 1 ppm / inhibition of growth at 0.063 ppm: Fusarium culmorum, 168 h, read-out: Observed activity; for inhibition of growth at […]: 0.25 ppm. The format is cell-based.

Series [3] deals with Phytophthora infestans. Put plainly: microbe, parasite or virus in culture. The format is cell-based.
Series [4] relates to Botrytis cinerea. The series can be described thus: Activity against the gray mold pathogen Botrytis cinerea in the microtiter test (Botrci). Conditions: for inhibition of growth at 0.016 ppm: conc 0.016 ppm; for inhibition of growth at […]: conc 0.25 ppm. It is filed as cell-based.
Series [5] deals with Pyricularia oryzae. Put plainly: microbe, parasite or virus in culture. It is filed as cell-based. Conditions: for Observed activity: Pyrior, single active compound.
The mark [6] stands for this setting: Zymoseptoria tritici, 168 h, read-out: Observed activity.
[7] abbreviates: Botrytis cinerea, 168 h, read-out: Observed activity.
[8] abbreviates: Botrytis cinerea, 168 h, conc 0.063 ppm, read-out: Observed activity.
The mark [9] stands for this setting: Zymoseptoria tritici, 168 h, conc 1 ppm, read-out: Observed activity.
The mark [10] stands for this setting: Botrytis cinerea, 168 h, conc 1 ppm, read-out: Observed activity.
Setting [11] is: Zymoseptoria tritici, 168 h, conc 0.25 ppm, read-out: Observed activity.
[12] abbreviates: Pyricularia oryzae, 168 h, read-out: Observed activity.
[13] abbreviates: Phytophthora infestans, 168 h, read-out: Observed activity.
Setting [14] is: Botrytis cinerea, 168 h, conc 4 ppm, read-out: Observed activity.

On to “1-(4-chlorophenyl)-3-(5-mercapto-[1,2,4]triazol-1-ylmethyl)-4,4-dimethylpentan-3-ol [I-9]”, for which the Observed activity in series [1] (conc 1 ppm) was found to be 20; in series [1] (conc 4 ppm), 64; in series [2] (16 ppm) it was 4%; in series [3] (conc 16 ppm), 52%; in series [4] (conc 4 ppm), 23%; in series [5] (conc 16 ppm), 57.

With `Fc1ccc([C@]2(Cn3cncn3)O[C@H]2c2ccccc2Cl)cc1` (racemic) [epoxiconazole], the inhibition of growth at 0.004 ppm in series [1] (setting [6]) was 4%. Moreover, the inhibition of growth at 0.016 ppm in series [1] (setting [6]) is 47%; in series [4] (setting [7]), 7%. Also, in series [2], the inhibition of growth at […] is 0%. For the same compound, the inhibition of growth at 0.063 ppm in series [4] (setting [8]) came to 25%.

On to `CCCCCCCCc1c(CC)nc2ncnn2c1N` [5-ethyl-6-octyl-[1,2,4]triazolo-[1,5-a]pyrimidin-7-ylamine], for which the inhibition of growth at 4 ppm in series [2] (4 ppm) came out at 2%.

In the case of `CCCCCCCCc1c(CC)nc2ncnn2c1N` [5-ethyl-6-octyl-[1,2,4]triazolo[1,5-a]pyrimidin-7-ylamine], the results for the inhibition of growth at 1 ppm in series [1] (setting [9]) and in series [4] (setting [10]) were 0% and 6%, respectively.

For the compound `CC1(C)CCC(Cc2ccc(Cl)cc2)C1(O)Cn1ncnc1S` (centres unmarked) [I-4, 5-(4-chlorobenzyl)-1-(5-mercapto-[1,2,4]triazol-1-ylmethyl)-2,2-dimethylcyclopentanol], the melting point fell in the range of 186 to 196 °C. Moreover, the inhibition of growth at […] in series [1] (setting [11]) is 63%. Further, the inhibition of growth at 1 ppm in series [1] (setting [9]) was found to be 68%. In addition, in series [2] (16 ppm), the inhibition of growth at 16 ppm turned out to be 3%. Moreover, the inhibition of growth at 1 ppm in series [4] (setting [10]) worked out at 28%. For the same compound, the inhibition of growth at 4 ppm in series [5] (setting [12]) was 3%.

`CCCCC(C#N)(Cn1ncnc1S)c1ccc(Cl)cc1` (centres unmarked) [I-10, 2-(4-chlorophenyl)-2-(5-mercapto-[1,2,4]triazol-1-ylmethyl)hexanenitrile]: the inhibition of growth at 1 ppm in series [1] (setting [9]) turned out to be 2%. Further, the inhibition of growth at 4 ppm in series [3] (setting [13]) was determined as 2%. Further, in series [5] (setting [12]), the inhibition of growth at 16 ppm was determined as 8%.

Consider `CCCC(Cn1ncnc1S)c1ccc(Cl)cc1Cl` (centres unmarked) [I-16, 2-[2-(2,4-dichlorophenyl)pentyl]-2H-[1,2,4]triazole-3-thiol], for which the inhibition of growth at 16 ppm in series [2] (16 ppm) is 6%; in series [3] (setting [13]) it was 47%. Moreover, the inhibition of growth at 4 ppm in series [4] (setting [14]) was found to be 31%. The inhibition of growth at 1 ppm in series [5] (setting [12]) was determined as 1%.

`CCCC1COC(Cn2ncnc2S)(c2ccc(Cl)cc2Cl)O1` (centres unmarked) [I-17, 2-[2-(2,4-dichlorophenyl)-4-propyl-[1,3]dioxolan-2-ylmethyl]-2H-[1,2,4]triazole-3-thiol]: in series [1] (setting [11]), the inhibition of growth at […] was 38%. Moreover, in series [2] (16 ppm), the inhibition of growth at 16 ppm turned out to be 7%. In series [4] (setting [14]), the inhibition of growth at 4 ppm came out at 33%.

As to `CC(C1CC1)C(O)(Cn1ncnc1S)c1ccc(Cl)cc1` (centres unmarked) [I-23], the Observed activity in series [1] (conc 1 ppm) turned out to be 7; in series [1] (conc 4 ppm) it was 9; in series [4] (conc 16 ppm), 26%.

As for `O=C(Nc1ccccc1-c1ccc(Cl)cc1)c1cccnc1Cl` [II-24, boscalid], the inhibition of growth at […] in series [1] (setting [11]) came to 59%. Besides, the inhibition of growth at 4 ppm in series [2] (4 ppm) and in series [5] (setting [12]) was 0% throughout.

Take `Cn1cc(C(=O)Nc2ccccc2-c2cc(F)c(F)c(F)c2)c(C(F)F)n1` [N-(3′,4′,5′-trifluorobiphenyl-2-yl)-3-difluoromethyl-1-methyl-1H-pyrazole-4-carboxamide]: in series [1] (setting [6]), the inhibition of growth at 0.004 ppm is 4%. In addition, the inhibition of growth at 0.016 ppm in series [4] (setting [7]) was found to be 9%.

Consider `N#Cc1c(Cl)c(Cl)c(Cl)c(C#N)c1Cl` [chlorothalonil], for which the results for the inhibition of growth at 0.016 ppm in series [1] (setting [6]), in series [4] (setting [7]) and in series [5] (setting [12]) were 8%, 2% and 0%, respectively.

For the compound `CC1CN(C2CCCCCCCCCCC2)CC(C)O1` (centres unmarked) [dodemorph], the inhibition of growth at 0.063 ppm in series [1] (setting [6]) turned out to be 0%. Besides, the inhibition of growth at […] amounted to 0% in series [1] (setting [11]) and 7% in series [4] (setting [7]). Besides, the inhibition of growth at 4 ppm in series [1] (Zymoseptoria tritici, 168 h, conc 4 ppm, read-out: Observed activity) stood at 23%; in series [4] (setting [14]), 33%; in series [5] (setting [12]) it was 1%. In addition, in series [4] (setting [10]), the inhibition of growth at 1 ppm was determined as 9%.

As to `CC(Cc1ccc(C(C)(C)C)cc1)CN1C[C@@H](C)O[C@@H](C)C1` (some centres unmarked) [fenpropimorph], the inhibition of growth at 0.063 ppm in series [1] (setting [6]) came out at 3%; in series [3] (setting [13]) it was 4%; in series [4] (setting [8]), 16%. In addition, the inhibition of growth at […] in series [1] (setting [11]) was 2%; in series [4] (setting [7]) it was 26%. Further, the inhibition of growth at 1 ppm in series [2] worked out at 9%; in series [5] (setting [12]) it was 14%.

Take `O=C(NCCc1ncc(C(F)(F)F)cc1Cl)c1ccccc1C(F)(F)F` [fluopyram]: the inhibition of growth at […] in series [2] is 0%. Besides, the inhibition of growth at 0.016 ppm in series [4] (setting [7]) was determined as 0%. Besides, the inhibition of growth at 0.063 ppm in series [4] (setting [8]) amounted to 0%.

Consider `O=c1c2cc(F)ccc2nc(-n2cncn2)n1-c1ccc(Cl)cc1Cl` [fluquinconazole], for which the inhibition of growth at 4 ppm in series [2] (4 ppm) worked out at 0%.

Consider `OC(Cn1cncn1)(c1ccc(F)cc1)c1ccccc1F` (centres unmarked) [flutriafol], for which the inhibition of growth at […] in series [1] (setting [11]) was determined as 3%. Moreover, the inhibition of growth at 16 ppm amounted to 29% in series [2] (16 ppm) and 42% in series [4] (Botrytis cinerea, 168 h, conc 16 ppm, read-out: Observed activity). Moreover, the inhibition of growth at 4 ppm in series [4] (setting [14]) came to 14%.

Consider `CC(C)NC(=O)N1CC(=O)N(c2cc(Cl)cc(Cl)c2)C1=O` [iprodione], for which, in series [1] (setting [6]), the inhibition of growth at 0.063 ppm stood at 11%. The inhibition of growth at 1 ppm stood at 3% in series [2] and 24% in series [5] (setting [12]).

Take `CO/N=C(/C(=O)OC)c1ccccc1COc1ccccc1C` [kresoxim-methyl]: the inhibition of growth at 1 ppm was 47% in series [3] (setting [13]) and 17% in series [4] (setting [10]). Besides, in series [4] (setting [7]), the inhibition of growth at […] came out at 3%.

For `COCC(=O)N(c1c(C)cccc1C)C(C)C(=O)OC` (centres unmarked) [metalaxyl], in series [1] (setting [6]), the inhibition of growth at 0.016 ppm stood at 0%. Further, the inhibition of growth at […] came to 0% in series [1] (setting [11]) and 1% in series [4] (setting [7]). The inhibition of growth at 1 ppm in series [3] (setting [13]) stood at 5%; in series [4] (setting [10]), 5%; in series [5] (setting [12]), 2%.

As to `CC1(C)CCC(Cc2ccc(Cl)cc2)C1(O)Cn1cncn1` (centres unmarked) [metconazole], in series [1] (setting [6]), the inhibition of growth at 0.004 ppm came out at 0% and the inhibition of growth at 0.016 ppm is 23%. Also, in series [2], the inhibition of growth at 0.063 ppm is 0% and the inhibition of growth at […] was 37%. Besides, in series [4] (setting [8]), the inhibition of growth at 0.063 ppm was determined as 31%.

In the case of `COc1cc(C)c(C(=O)c2c(OC)ccc(Br)c2C)c(OC)c1OC` [metrafenone], the inhibition of growth at 1 ppm was determined as 0% in series [4] (setting [10]) and 11% in series [5] (setting [12]).

Compound `CNC(=O)/C(=N/OC)c1ccccc1CO/N=C(C)/C(=N/OC)C(/C)=N/OC` [orysastrobin] had an Observed activity in series [4] (conc 0.063 ppm) of 1%.

On to `OC(Cc1ccccc1Cl)(Cn1nc[nH]c1=S)C1(Cl)CC1` (centres unmarked) [prothioconazole], for which the inhibition of growth at 0.004 ppm in series [1] (setting [6]) came to 0%. In series [2], the inhibition of growth at […] is 0%. Moreover, the inhibition of growth at 0.016 ppm in series [4] (setting [7]) came out at 5%. The inhibition of growth at 0.063 ppm in series [4] (setting [8]) is 17%.

For the compound `COC(=O)N(OC)c1ccccc1COc1ccn(-c2ccc(Cl)cc2)n1` [pyraclostrobin], the inhibition of growth at […] in series [1] (Zymoseptoria tritici, 168 h, conc 0.00025 ppm, read-out: Observed activity) amounted to 5%. The inhibition of growth at 0.004 ppm in series [1] (setting [6]) is 44%; in series [5] (setting [12]), 25%. The inhibition of growth at 0.016 ppm in series [1] (setting [6]) was 75%; in series [3] (setting [13]), 13%; in series [5] (setting [12]), 54%. Further, the inhibition of growth at 0.063 ppm in series [2] came to 0%; in series [3] (setting [13]), 26%.

On to `Cc1cc(C)nc(Nc2ccccc2)n1` [pyrimethanil], for which the inhibition of growth at 1 ppm in series [1] (setting [9]) amounted to 0%. Further, the inhibition of growth at 4 ppm in series [2] (4 ppm) was found to be 3%. Further, the inhibition of growth at 0.063 ppm in series [4] (setting [8]) is 7%.

On to `CC(C)(C)C(O)(CCc1ccc(Cl)cc1)Cn1cncn1` (centres unmarked) [tebuconazole], for which the inhibition of growth at 0.063 ppm in series [3] (setting [13]) came to 3%. Further, the inhibition of growth at 0.004 ppm in series [5] (setting [12]) came to 4%.

Turning to `COC(=O)NC(=S)Nc1ccccc1NC(=S)NC(=O)OC` [thiophanate-methyl, thiophanate methyl], the inhibition of growth at 1 ppm in series [3] (setting [13]) was 7%; in series [5] (setting [12]) it was 4%.

`CC1(C)CCC(=Cc2ccc(Cl)cc2)C1(O)Cn1cncn1` (centres unmarked) [triticonazole]: the inhibition of growth at 0.063 ppm in series [1] (setting [6]) amounted to 13%. Further, in series [2], the inhibition of growth at 1 ppm worked out at 17%. Further, in series [4] (setting [7]), the inhibition of growth at […] came out at 29%.

In the case of mancozeb, the Observed activity came out at 23 in series [1] (conc 4 ppm); 0% in series [2] (4 ppm); 23% in series [3] (conc 1 ppm); 8% in series [4] (conc 1 ppm); 67 in series [5] (conc 4 ppm).

In the case of metiram, the values for the Observed activity in series [1] (conc 1 ppm), in series [5] (conc 1 ppm) and in series [5] (conc 16 ppm) were 17, 6 and 36, respectively.

One may read the melting point as the temperature, or range, at which the solid turns liquid.
